# In patent publication US11370798B2 (Vertex Pharmaceuticals Incorporated, priority 2012, dated 2022):
# System: HCT116 colorectal cancer cells
# Experiment: Cisplatin sensitization assay (96 h cell viability MTS);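 further: Test-compound concentration that lowers the Cisplatin IC50 by a set fold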
# Assay type: cell-based
# Conditions: compound and Cisplatin added simultaneously, Cisplatin sensitization value
# Method: Compounds can be screened for their ability to sensitize HCT116 colorectal cancer cells to Cisplatin using a 96 h cell viability (MTS) assay. […] Compounds and Cisplatin are then both added simultaneously to the cell media in 2-fold serial dilutions from a top final concentration of 10 μM as a full matrix of concentrations in a final cell volume of 200 μl, and the cells are then incubated at 37° C. in 5% CO2. After 96 h, 40 μl of MTS reagent (Promega G358a) is added to each well and the cells are incubated for 1 h at 37° C. in 5% CO2.
# Compounds with a Cisplatin sensitization value of <0.02 μM are marked with “+++.” Compounds with a Cisplatin sensitization value>0.02 μM but <0.2 μM are marked with “++.” Compounds with a Cisplatin sensitization value>0.2 μM but <5 μM are marked with “+.”
row,Structure (SMILES),Cisplatin Sensitization Assay
1,"Nc1nn2cc(F)cnc2c1C(=O)Nc1cnccc1N1CCN(C2CCOC2)CC1 (racemic) [I-N-19, (R,S)-2-amino-6-fluoro-N-(4-(4-(tetrahydrofuran-3-yl)piperazin-1-yl)pyridin-3-yl)pyrazolo[1,5-a]pyrimidine-3-carboxamide]",+++ (Cisplatin sensitization value of <0.02 μM)
2,"N#CCc1cnc2c(C(=O)Nc3cnccc3OC3CCCNC3)c(N)nn2c1 (racemic) [I-O-2, (R,S)-2-amino-6-(cyanomethyl)-N-(4-(piperidin-3-yloxy)pyridin-3-yl)pyrazolo[1,5-a]pyrimidine-3-carboxamide]",++ (Cisplatin sensitization value>0.02 μM but <0.2 μM)
3,"Nc1nn2cc(F)cnc2c1C(=O)Nc1cnccc1OC1CN2CCC1CC2 (racemic) [I-O-6, (R,S)-2-amino-6-fluoro-N-(4-(quinuclidin-3-yloxy)pyridin-3-yl)pyrazolo[1,5-a]pyrimidine-3-carboxamide]",+++ (Cisplatin sensitization value of <0.02 μM)
4,"Nc1nn2cc(F)cnc2c1C(=O)Nc1cnccc1OC1CCOC1 (racemic) [I-O-15, (R,S)-2-amino-6-fluoro-N-(4-((tetrahydrofuran-3-yl)oxy)pyridin-3-yl)pyrazolo[1,5-a]pyrimidine-3-carboxamide]",+++ (Cisplatin sensitization value of <0.02 μM)
5,"N#CCc1cnc2c(C(=O)Nc3cnccc3OC3CCOC3)c(N)nn2c1 (racemic) [I-O-37, (R,S)-2-amino-6-(cyanomethyl)-N-(4-((tetrahydrofuran-3-yl)oxy)pyridin-3-yl)pyrazolo[1,5-a]pyrimidine-3-carboxamide]",+++ (Cisplatin sensitization value of <0.02 μM)
6,"Nc1nn2cc(F)cnc2c1C(=O)Nc1cnccc1O[C@@H]1CN2CCC1CC2 [Compound I-0-10, (S)-2-amino-6-fluoro-N-(4-(quinuclidin-3-yloxy)pyridin-3-yl)pyrazolo[1,5-a]pyrimidine-3-carboxamide]",+++ (Cisplatin sensitization value of <0.02 μM)
7,"Nc1nn2cc(F)cnc2c1C(=O)Nc1cnccc1OC1CCN(C2COC2)CC1 [Compound I-0-11, 2-amino-6-fluoro-N-(4-((1-(oxetan-3-yl)piperidin-4-yl)oxy)pyridin-3-yl)pyrazolo[1,5-a]pyrimidine-3-carboxamide]",+++ (Cisplatin sensitization value of <0.02 μM)
8,"CN1CCC(c2ccncc2NC(=O)c2c(N)nn3cc(F)cnc23)CC1 [I-C-1, 2-amino-6-fluoro-N-(4-(1-methylpiperidin-4-yl)pyridin-3-yl)pyrazolo[1,5-a]pyrimidine-3-carboxamide]",++ (Cisplatin sensitization value>0.02 μM but <0.2 μM)
9,"Cc1ccncc1NC(=O)c1c(N)nn2cc(Cl)cnc12 [I-C-2, 2-amino-6-chloro-N-(4-methylpyridin-3-yl)pyrazolo[1,5-a]pyrimidine-3-carboxamide]",++ (Cisplatin sensitization value>0.02 μM but <0.2 μM)
10,"Cc1ccncc1NC(=O)c1c(N)nn2cc(F)cnc12 [I-C-4, 2-amino-6-fluoro-N-(4-methylpyridin-3-yl)pyrazolo[1,5-a]pyrimidine-3-carboxamide]",++ (Cisplatin sensitization value>0.02 μM but <0.2 μM)
11,"Nc1nn2cc(F)cnc2c1C(=O)Nc1cnccc1-c1ccccc1 [I-C-5, 2-amino-6-fluoro-N-(4-phenylpyridin-3-yl)pyrazolo[1,5-a]pyrimidine-3-carboxamide]",+++ (Cisplatin sensitization value of <0.02 μM)
12,"N#CCc1cnc2c(C(=O)Nc3cnccc3-c3ccccc3)c(N)nn2c1 [I-C-6, 2-amino-6-(cyanomethyl)-N-(4-phenylpyridin-3-yl)pyrazolo[1,5-a]pyrimidine-3-carboxamide]",+++ (Cisplatin sensitization value of <0.02 μM)
13,"Nc1nn2cc(F)cnc2c1C(=O)Nc1cncc2c1CCNC2 [I-C-7, 2-amino-6-fluoro-N-(5,6,7,8-tetrahydro-2,7-naphthyridin-4-yl)pyrazolo[1,5-a]pyrimidine-3-carboxamide]",++ (Cisplatin sensitization value>0.02 μM but <0.2 μM)
14,"CN1CCc2c(cncc2NC(=O)c2c(N)nn3cc(F)cnc23)C1 [I-C-8, 2-amino-6-fluoro-N-(7-methyl-5,6,7,8-tetrahydro-2,7-naphthyridin-4-yl)pyrazolo[1,5-a]pyrimidine-3-carboxamide]",+ (Cisplatin sensitization value>0.2 μM but <5 μM)
15,"C[N+]1([O-])CCc2c(cncc2NC(=O)c2c(N)nn3cc(F)cnc23)C1 (stereo not drawn) [I-C-9, 5-(2-amino-6-fluoropyrazolo[1,5-a]pyrimidine-3-carboxamido)-2-methyl-1,2,3,4-tetrahydro-2,7-naphthyridine 2-oxide]",+ (Cisplatin sensitization value>0.2 μM but <5 μM)
16,"Nc1nn2cc(F)cnc2c1C(=O)Nc1cnccc1C1CCN(C2COC2)CC1 [I-C-10, 2-amino-6-fluoro-N-(4-(1-(oxetan-3-yl)piperidin-4-yl)pyridin-3-yl)pyrazolo[1,5-a]pyrimidine-3-carboxamide]",+++ (Cisplatin sensitization value of <0.02 μM)
17,"Nc1nn2cc(Cl)cnc2c1C(=O)Nc1cnccc1C1CCN(C2COC2)CC1 [I-C-11, 2-amino-6-chloro-N-(4-(1-(oxetan-3-yl)piperidin-4-yl)pyridin-3-yl)pyrazolo[1,5-a]pyrimidine-3-carboxamide]",+++ (Cisplatin sensitization value of <0.02 μM)
18,"Nc1nn2cc(F)cnc2c1C(=O)Nc1cncc(F)c1C1=CCN(C2COC2)CC1 [I-C-12, 2-amino-6-fluoro-N-(5-fluoro-1′-(oxetan-3-yl)-1′,2′,3′,6′-tetrahydro-[4,4′-bipyridin]-3-yl)pyrazolo[1,5-a]pyrimidine-3-carboxamide]",+++ (Cisplatin sensitization value of <0.02 μM)
19,"Nc1nn2cc(F)cnc2c1C(=O)Nc1cncc(F)c1C1CCN(C2COC2)CC1 [I-C-13, 2-amino-6-fluoro-N-(5-fluoro-4-(1-(oxetan-3-yl)piperidin-4-yl)pyridin-3-yl)pyrazolo[1,5-a]pyrimidine-3-carboxamide]",++ (Cisplatin sensitization value>0.02 μM but <0.2 μM)
20,"CN1CCC(c2c(F)cncc2NC(=O)c2c(N)nn3cc(F)cnc23)CC1 [I-C-14, 2-amino-6-fluoro-N-(5-fluoro-4-(1-methylpiperidin-4-yl)pyridin-3-yl)pyrazolo[1,5-a]pyrimidine-3-carboxamide]",+ (Cisplatin sensitization value>0.2 μM but <5 μM)
21,"Nc1nn2cc(F)cnc2c1C(=O)Nc1cnccc1-c1cccnc1 [I-C-15, N-([3,4′-bipyridin]-3′-yl)-2-amino-6-fluoropyrazolo[1,5-a]pyrimidine-3-carboxamide]",++ (Cisplatin sensitization value>0.02 μM but <0.2 μM)
22,"CN1CCC(C(=O)N2CCC(c3ccncc3NC(=O)c3c(N)nn4cc(F)cnc34)CC2)CC1 [I-C-16, 2-amino-6-fluoro-N-(4-(1-(1-methylpiperidine-4-carbonyl)piperidin-4-yl)pyridin-3-yl)pyrazolo[1,5-a]pyrimidine-3-carboxamide]",+ (Cisplatin sensitization value>0.2 μM but <5 μM)
23,"CN1CCN(C(=O)N2CCC(c3ccncc3NC(=O)c3c(N)nn4cc(F)cnc34)CC2)CC1 [I-C-17, 2-amino-6-fluoro-N-(4-(1-(4-methylpiperazine-1-carbonyl)piperidin-4-yl)pyridin-3-yl)pyrazolo[1,5-a]pyrimidine-3-carboxamide]",++ (Cisplatin sensitization value>0.02 μM but <0.2 μM)
24,"Nc1nn2cc(F)cnc2c1C(=O)Nc1cnccc1C1CCN(C(=O)C23CCN(CC2)CC3)CC1 [I-C-18, 2-amino-6-fluoro-N-(4-(1-(quinuclidine-4-carbonyl)piperidin-4-yl)pyridin-3-yl)pyrazolo[1,5-a]pyrimidine-3-carboxamide]",+ (Cisplatin sensitization value>0.2 μM but <5 μM)
25,"CN1CCN(C(=O)c2ccc(-c3ccncc3NC(=O)c3c(N)nn4cc(F)cnc34)cn2)CC1 [I-C-19, 2-amino-6-fluoro-N-(6-(4-methylpiperazine-1-carbonyl)-[3,4′-bipyridin]-3′-yl)pyrazolo[1,5-a]pyrimidine-3-carboxamide]",++ (Cisplatin sensitization value>0.02 μM but <0.2 μM)
26,"Cc1ncccc1-c1ccncc1NC(=O)c1c(N)nn2cc(F)cnc12 [I-C-20, 2-amino-6-fluoro-N-(2-methyl-[3,4′-bipyridin]-3′-yl)pyrazolo[1,5-a]pyrimidine-3-carboxamide]",+++ (Cisplatin sensitization value of <0.02 μM)
27,"CN1CCN(c2ccc(-c3ccncc3NC(=O)c3c(N)nn4cc(F)cnc34)cn2)CC1 [I-C-21, 2-amino-6-fluoro-N-(6-(4-methylpiperazin-1-yl)-[3,4′-bipyridin]-3′-yl)pyrazolo[1,5-a]pyrimidine-3-carboxamide]",+++ (Cisplatin sensitization value of <0.02 μM)
28,"Cc1ccc(-c2ccncc2NC(=O)c2c(N)nn3cc(F)cnc23)cn1 [I-C-22, 2-amino-6-fluoro-N-(6-methyl-[3,4′-bipyridin]-3′-yl)pyrazolo[1,5-a]pyrimidine-3-carboxamide]",++ (Cisplatin sensitization value>0.02 μM but <0.2 μM)
29,"CN1CCC(c2ccncc2NC(=O)c2c(N)nn3cc(C(C)(C)C#N)cnc23)CC1 [I-C-23, 2-amino-6-(2-cyanopropan-2-yl)-N-(4-(1-methylpiperidin-4-yl)pyridin-3-yl)pyrazolo[1,5-a]pyrimidine-3-carboxamide]",+ (Cisplatin sensitization value>0.2 μM but <5 μM)
30,"Nc1nn2cc(F)cnc2c1C(=O)Nc1cnccc1-c1ccncc1 [I-C-24, N-([4,4′-bipyridin]-3-yl)-2-amino-6-fluoropyrazolo[1,5-a]pyrimidine-3-carboxamide]",+++ (Cisplatin sensitization value of <0.02 μM)
